Usually IC50 stands for the concentration at which inhibition is half-maximal. Low values mean inhibition by little substance, high ones a need for much substance.

SMILES strings stand for the structures.

Assay [1] has as its target T1, nociceptin receptor ORL1 (Homo sapiens, UniProt P41146). The assay is described as follows: Nociceptin receptor binding inhibition assay ([125I]Tyr14-Nociceptin, CHO/ORL1 membrane fractions, SPA). The conditions noted are these: CHO/ORL1 membrane fraction, 50 pM [125I]Tyr14-Nociceptin, 37° C., 60 minutes. Also noted: expressed in transfected cells; membrane fractions. As for the experimental part:
Nociceptin Receptor Binding Inhibition Assay
A cDNA that codes for a human nociceptin receptor gene was cloned into an expression vector pCR3 (by Invitrogen) to prepare pCR3/ORL1. Next, pCR3/ORL1 was transfected in CHO cells using a transfectam (by Nippongene) to obtain a stable expression strain (CHO/ORL1 cells) having resistance against 1 mg/ml G418. Membrane fractions were prepared from this stable expression strain to carry out a receptor binding assay. 11 μg of the membrane fraction, 50 pM [^125I]Tyr^14-Nociceptin (by Amersham Pharmacia), 1 mg of wheatgerm agglutinin SPA beads (PVT based, by Amersham Pharmacia) and each test compound were suspended in an NC buffer (50 mM Hepes, 10 mM sodium chloride, 1 mM magnesium chloride, 2.5 mM calcium chloride, 0.1% BSA, 0.025% bacitracin, pH 7.4) and incubated at 37° C. for 60 minutes, and then the radioactivity of the culture was determined. The binding activity to the nociceptin receptor was indicated by the 50% inhibition concentration (IC50 value) of [^125I]Tyr^14-Nociceptin binding by each test compound.

Assay [2] deals with T1, nociceptin receptor ORL1. Kind of assay: Antagonism against nociceptin-elicited G protein activation (GTPγ[35S] binding, CHO/ORL1 membranes). It is filed as biochemical. Also noted: expressed in transfected cells; membrane preparation. To be noted: CHO/ORL1 membrane, 50 nM nociceptin, 200 pM GTPγ[35S], 25° C., 150 minutes. As for the experimental part: Antagonism Against Nociceptin-Elicited G Protein Activation
CHO cells which stably expressed a nociceptin receptor ORL1 were used to investigate the action of each test compound against nociceptin-elicited G protein activation. A membrane prepared from the CHO/ORL1 cells, 50 nM nociceptin, 200 pM GTPγ[^35S] (by NEN), 1.5 mg of wheatgerm agglutinin SPA beads (by Amersham Pharmacia) and each test compound were mixed in a GDP buffer (20 mM Hepes, 100 mM sodium chloride, 10 mM magnesium chloride, 1 mM EDTA, 5 μM GDP, pH 7.4) and incubated at 25° C. for 150 minutes, and then the radioactivity was determined. The antagonism against the nociceptin-elicited G protein activation was shown by the 50% inhibition concentration (IC50 value) of the test compound against GTPγ[^35S] binding.
(In general: GTPγS is a poorly hydrolysed GTP analogue; its binding reports G protein activation.)

T1 sequence (P41146 whole entry): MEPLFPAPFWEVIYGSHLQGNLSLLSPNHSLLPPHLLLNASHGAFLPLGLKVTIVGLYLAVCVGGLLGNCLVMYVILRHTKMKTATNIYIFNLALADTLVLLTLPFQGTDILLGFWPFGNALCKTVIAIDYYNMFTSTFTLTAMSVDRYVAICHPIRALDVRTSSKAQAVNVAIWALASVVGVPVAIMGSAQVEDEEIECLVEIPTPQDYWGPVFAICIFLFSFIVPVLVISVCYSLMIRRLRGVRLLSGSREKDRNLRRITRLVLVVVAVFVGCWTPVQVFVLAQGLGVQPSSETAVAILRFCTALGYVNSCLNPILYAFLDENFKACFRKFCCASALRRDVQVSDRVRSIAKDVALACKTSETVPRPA

On to `Cc1ncc(-c2c(C)c(CN[C@H]3CC[C@@H](F)C3)nn2C(C)C)cc1F` [Example 2, 3-[(1S,3R)-3-fluorocyclopentylamino]methyl-5-(5-fluoro-6-methylpyridin-3-yl)-1-isopropyl-4-methyl-1H-pyrazole], for which the IC50 is 0.92 nM at nociceptin receptor ORL1 [1] and 0.61 nM on nociceptin receptor ORL1 [2].
For `Cc1c(CN[C@H]2CC[C@@H](F)C2)n[nH]c1-c1cc(F)cc(F)c1` [Example 8, 5-(3,5-Difluorophenyl)-3-[(1S,3R)-3-fluorocyclopentylamino]methyl-4-methyl-1H-pyrazole], in that order: 7.5 nM and 7.5 nM.
For `Cc1c(CN[C@H]2CC[C@@H](F)C2)nn(CCC#N)c1-c1cc(F)cc(F)c1` [Example 13, 1-(2-Cyanoethyl)-5-(3,5-difluorophenyl)-3-[(1S,3R)-3-fluorocyclopentylamino]methyl-4-methyl-1H-pyrazole] the same measures were 8.2 nM and 4.6 nM.
For `COCc1c(CN[C@H]2CC[C@@H](F)C2)n[nH]c1-c1cc(F)cc(F)c1` [Example 19, 5-(3,5-Difluorophenyl)-3-[(1S,3R)-3-fluorocyclopentylamino]methyl-4-methoxymethyl-1H-pyrazole] the same measures were 0.62 nM and 0.47 nM.
Take `COCc1c(CN[C@H]2CC[C@@H](OC)CC2)n[nH]c1-c1cc(F)cc(F)c1` [Example 34, 5-(3,5-Difluorophenyl)-3-(cis-4-methoxycyclohexylamino)methyl-4-methoxymethyl-1H-pyrazole]: the values for the IC50 on nociceptin receptor ORL1 [1] and at nociceptin receptor ORL1 [2] were 1.1 nM and 0.6 nM, respectively.
As for `CCc1c(CN[C@H]2CC[C@@H](F)CC2)nc(C)n1-c1cc(F)cc(F)c1` [Example 38, 1-(3,5-Difluorophenyl)-4-(cis-4-fluorocyclohexylamino)methyl-5-ethyl-2-methyl-1H-imidazole], the IC50 at nociceptin receptor ORL1 [1] is 6.8 nM; at nociceptin receptor ORL1 [2], 6 nM.

The values above are taken from patent US7829586B2, “Aryl-substituted nitrogen-containing heterocyclic compounds” (Banyu Pharmaceutical Co., Ltd., priority 2005, dated 2010).
